Key:
Assay type in all cases: cell-based
MCF-7/Twist cells [1] = assay: Dye efflux assays
Protocol: (§1) Semiconfluent cells were washed once with HBSS and resuspended in growth medium at 1×10^6 cells/ml and 5 μg/ml Hoechst 33342 (Sigma-Aldrich, St. Louis, Mo.) and incubated for 45 minutes at 37° C. in a constant-temperature water bath. Subsequently, the cells were washed once in cold HBSS/2% BSA and resuspended in warm medium and incubated for 45 minutes at 37° C. for efflux. Cells were centrifuged and mounted on a slide before photomicroscopy.
(§2) For Rhodamine 123 (Sigma-Aldrich) staining, cells were trypsinized and washed twice in PBS/1% FCS. One million cells were resuspended in 100 μl of PBS/1% FCS and stained with 100 to 500 ng/ml Rhodamine 123 for 15 to 30 minutes at 37° C. Cells were washed twice at room temperature, resuspended, and incubated without Rhodamine 123 for 15 to 30 minutes at 37° C. to allow for efflux to occur. Rhodamine efflux was subsequently determined by flow cytometry on a FACScan II flow cytometer.

MCF-7 cells [2] = assay: Dye efflux assays
Protocol: as §1, §2

MCF-7/Twist cells [3] = assay: Cell cycle analysis by flow cytometry after anti-estrogen treatment; conditions: 1 μM 4-hydroxytamoxifen or 1 nM fulvestrant in PRF-MEM/5% CSS, three days
Protocol: (§3) Cell lines were obtained from ATCC (Manassas, Va.) and maintained as instructed. Construction of MCF-7/Twist and MCF 10A/Twist cell lines have been described earlier (19, 23). For transient expression, cells were transfected using either retroviral constructs (generated in-house) or lentiviral constructs (Open Biosystems, Huntsville, Ala.). For hormone studies, cells were grown for two days in phenol-red free minimal essential media (PRF-MEM) containing 5% charcoal stripped serum (CSS). For anti-estrogen treatment, PRFMEM/5% CSS media was supplemented with 1 μM 4-hydroxytamoxifen (tamoxifen) or 1 nM fulvestrant. Three days following treatment, the cells were fixed in 70% ethanol and cell cycle analysis performed on a FacScan I (BD Biosciences, San Jose, Calif.). Independent experiments were repeated four times. Data was analyzed using FlowJo (Tree Star Inc., Ashland, Oreg.) and ModFit LT 2.0 software (Verity House Software, Topsham, Me.).

MCF-7 cells [4] = assay: as above; conditions: 1 μM 4-hydroxytamoxifen or 1 nM fulvestrant in PRF-MEM/5% CSS, three days
Protocol: as §3

ER = ER re-expression after methylation inhibitor / HDAC inhibitor treatment (qRT-PCR, immunoblot); conditions: MCF-7/Twist cells; 1 μM AZA, 10 μM VPA, three days; qRT-PCR and immunoblotting
Protocol: Cells were treated with 1 μM AZA for three days and DNA processed for demethylation studies by methylation specific quantitative PCR (MS-qPCR). Total proteins were extracted and immunoblotted to analyze the effect of demethylation on ER expression. Cells were treated with HDAC inhibitor VPA at 10 μM concentration for three days and processed similarly.

[5] = 5 μg/ml Hoechst 33342, 45 minutes efflux, microscopy

## CCOc1ccc(-c2nc3ccc(-c4nc5ccc(N6CCN(C)CC6)cc5[nH]4)cc3[nH]2)cc1 [Hoechst 33342]
MCF-7/Twist cells [1]; [5]
  relative fluorescence intensity per cell (dye retained after efflux): 57
MCF-7 cells [2]; [5]
  relative fluorescence intensity per cell (dye retained after efflux): 65

## C[C@]12CC[C@@H]3c4ccc(O)cc4C[C@@H](CCCCCCCCC[S+]([O-])CCCC(F)(F)C(F)(F)F)[C@H]3[C@@H]1CC[C@@H]2O (stereo partly drawn) [fulvestrant]
MCF-7/Twist cells [3]
  G1 (percentage of cells in cell cycle phase): 67.7%
  G2/M (percentage of cells in cell cycle phase): 13.3%
  S (percentage of cells in cell cycle phase): 16.6%
MCF-7 cells [4]
  G1 (percentage of cells in cell cycle phase): 86%
  G2/M (percentage of cells in cell cycle phase): 5.8%
  S (percentage of cells in cell cycle phase): 3.9%

## CCCC(CCC)C(=O)O [VPA, valproic acid]
ER
  ER expression (transcript and protein levels): significant increase

## Rhodamine 123
MCF-7/Twist cells [1]; Rhodamine 123, flow cytometry
  mean fluorescence intensity (dye retained after efflux): 96
MCF-7 cells [2]; Rhodamine 123, flow cytometry
  mean fluorescence intensity (dye retained after efflux): 205

## Nc1ncn([C@H]2C[C@H](O)[C@@H](CO)O2)c(=O)n1 [AZA, 5-aza 2′-deoxycytidine]
ER
  ER expression (transcript and protein levels): significant increase

— patent US20130059903A1, “Compositions and Methods for Characterizing Breast Cancer” (THE JOHNS HOPKINS UNIVERSITY, priority 2010, published 2013)
